Tests used:
[1] = Nanoindentation test of the newly regenerated layer (modulus, hardness); design: species or system Human; settings: for mechanical properties of the newly formed layer compared with healthy dentin: peptide only treatment; for surface hardness of dentin lesions: peptide only, 5 days
Procedure: Human third molars were sectioned transversally into 2 mm thick slices at the mid-coronal region of the tooth. A window of sound dentin measuring 2×2 mm each was delineated by applying two coats of acid-resistant nail varnish on the tooth surfaces. To mimic carious lesions, the samples were immersed in a demineralizing solution (pH 4.6, 30 ml) at 37° C. for 3 days. Twenty μl of peptide only (LRAP, P32, P26) and peptide-chitosan hydrogel (200 μg/ml) were applied separately on the demineralized windows (2 applications: Days 1 & 5) and the tooth slices were immersed in artificial saliva (pH 7, 5 ml) at 37° C. for 5 and 10 days. The artificial saliva includes 1.2 mM Ca^2+, 0.2 mM Mg^2+ 0.7 mM H2PO4^−, 16 mM KCl, 4.5 mM NH4Cl and 50 mM Hepes in water. The artificial saliva solution (5 ml) was changed daily from days 1-10.
FIGS. 18A, 18B, 18C, and 18D provide nanoindentation test results showing changes in the modulus (A,B) and hardness (C, D) of the newly regenerated layer after being treated with peptide only and peptide-chitosan hydrogel for 5 and 10 days. Treatment with LRAP and P32 restored surface hardness of dentin lesions in 5 days.

[2] = TEM of peptide self-assembly; format: physicochemical; settings: pH 7.4, HEPES buffer, 25° C.
Source text: (Ref: doi:10.1016/j.jsb.2011.07.016).

Sequence	mechanical properties of the newly formed layer compared with healthy dentin [1]	surface hardness of dentin lesions [1]	TEM assembly morphology [2]
MPLPPHPGHPGYINFSYEVLTPLKWYQSIRPPPLPPMLPDLTLEAWPSTDKTKREEVD (listed as Homo sapiens) [LRAP, leucine rich amelogenin polypeptide, alternatively spliced isoform of amelogenin]	superior mechanical properties than healthy dentin	restored	–
MPLPSYEVLTPLKWPVHPMQPSTDKTKREEVD (Amelogenin-derived polypeptide) [Peptide P32, Artificial amelogenin-derived polypeptide]	superior mechanical properties than healthy dentin	restored	uniformly-dispersed spherical assemblies

Reference: US9962465B2, “Amelogenin-chitosan hydrogel for dentin hypersensitivity” (UNIVERSITY OF SOUTHERN CALIFORNIA, priority 2015, dated 2018)
